{"source": "patent US20230364032A1", "about": "“USE OF 2-HOBA TO TREAT ATHEROSCLEROSIS” (Vanderbilt University, priority 2020, published 2023)", "key": {"[1]": {"system": "atherosclerotic lesions of Ldlr−/− mice", "assay": "Lesion apoptosis (TUNEL) and efferocytosis", "format": "in vivo, mouse", "method": "Cell apoptosis was induced as indicated and detected by fluorescent labeled Annexin V staining and quantitated by either Flow Cytometry (BD 5 LSRII) or counting Annexin V positive cells in images captured under a fluorescent microscope. The apoptotic cells in atherosclerotic lesions were measured by TUNEL staining of cross-sections of atherosclerotic proximal aortas as previously described^30. The TUNEL positive cells not associated with live macrophages were considered free apoptotic cells and macrophage-associated apoptotic cells were considered phagocytosed as a measure of lesion efferocytosis as previously described^30."}, "primary macrophages": {"system": "primary macrophages", "assay": "H2O2-induced apoptosis of macrophages (Annexin V)", "format": "cell-based, mouse", "details": "250 μM H2O2, 24 h, 500 μM compound; compared to vehicle or 4-HOBA", "method": "(§1) (6A and 6B) Mouse aortic endothelial cells (6A) or primary macrophages (6B) were incubated for 24 h with 250 μM H2O2 alone or with either 4-HOBA or 2-HOBA (500 μM). Apoptotic cells were then detected by Annexin V staining and flow cytometry. (6C to 6H) The mRNA levels of IL-1β, IL-6, and TNF-α were analyzed by real time PCR in the peritoneal macrophages incubated for 24 h with either oxidized LDL (6C-6E) or 250 μM H2O2 (6F-6H) alone or with either 4-HOBA or 2-HOBA (500 μM). (6A to 6H) Data are presented as mean±SEM from three independent experiments, ***p<0.001, One-way ANOVA with Bonferroni's post hoc test.\n(§2) Peritoneal macrophages were isolated from mice 72 hours post injection of 3% thioglycollate and maintained in DMEM plus 10% fetal bovine serum (FBS, Gibco) as previously described^30. Human aortic endothelial cells (HAECs) were obtained from Lonza and maintained in endothelial cell basal medium-2 plus 1% FBS and essential growth factors (Lonza).\n(§3) Cell apoptosis was induced as indicated and detected by fluorescent labeled Annexin V staining and quantitated by either Flow Cytometry (BD 5 LSRII) or counting Annexin V positive cells in images captured under a fluorescent microscope. The apoptotic cells in atherosclerotic lesions were measured by TUNEL staining of cross-sections of atherosclerotic proximal aortas as previously described^30. […]"}, "aortic endothelial cells": {"system": "aortic endothelial cells", "assay": "H2O2-induced apoptosis of endothelial cells (Annexin V)", "format": "cell-based, mouse", "details": "250 μM H2O2, 24 h, 500 μM compound; compared to vehicle or 4-HOBA", "method": "as §1, §2, §3"}, "MDA": {"system": "MDA", "assay": "Plasma MDA content by TBARS assay", "format": "in vivo, mouse", "details": "Ldlr−/− mice, western diet 16 weeks; versus 4-HOBA or vehicle", "method": "(§4) FIG. 21A-D show the effects of 2-HOBA on plasma and LDL MDA adducts in hypercholesterolemic Ldlr^−/− mice. (20A) The MDA content in plasma from Ldlr^−/− mice consuming a Western diet for 16 weeks and treated with 2-HOBA, 4-HOBA, or vehicle was measured by TBARS Assay(*p<0.05, **p<0.01). (20B) The levels of MDA adducts were measured from LDL isolated from the Ldlr^−/− mice by ELISA. N=10 per group, ***p<0.001. (20C) LDL was isolated from control and FH subjects (n=6) pre and post LDL apheresis and the MDA adduct content was measured by ELISA. (20D) LDL was isolated from 2-HOBA, 4-HOBA, or vehicle treated hypercholesterolemic Ldlr^−/− mice. WT peritoneal macrophages were incubated for 24 hrs with the LDL and the cellular cholesterol content was measured as described in methods. (20A-D) One-way ANOVA with Bonferroni's post hoc test)."}, "MDA-LDL": {"system": "MDA-LDL", "assay": "MDA adducts in isolated LDL by ELISA", "format": "in vivo, mouse", "details": "Ldlr−/− mice", "method": "as §4\nThe study was approved by the Vanderbilt University Institutional Review Board (IRB), and all participants gave their written informed consent. The human blood samples from patients with severe FH, who were undergoing LDL apheresis, and healthy controls were obtained using an IRB approved protocol. HDL and LDL were prepared from serum by Lipoprotein Purification Kits (Cell BioLabs, Inc.). Sandwich ELISA was used to measure plasma MDA-LDL and MDA-HDL levels following the manufacturer's instructions (Cell BioLabs, Inc.). Briefly, isolated LDL or HDL samples and MDA-Lipoprotein standards were added onto anti-MDA coated plates, and, after blocking, the samples were incubated with biotinylated anti-apoB or anti-ApoAI primary antibody. The samples were then incubated for 1 h with streptavidin-enzyme conjugate and 15 min with substrate solution. After stopping the reaction, the O.D. was measured at 450 nm wavelength. MDA-ApoAI was detected in mouse plasma by immunoprecipitation of ApoAI and western blotting. […] Proteins were visualized and quantitated by Odyssey 3.0 Quantification software (LI-COR)."}, "[2]": {"biological_target": "anti-MDA antibody / MDA-BSA (Bos taurus, UniProt P02769)", "sequence (P02769 25-607)": "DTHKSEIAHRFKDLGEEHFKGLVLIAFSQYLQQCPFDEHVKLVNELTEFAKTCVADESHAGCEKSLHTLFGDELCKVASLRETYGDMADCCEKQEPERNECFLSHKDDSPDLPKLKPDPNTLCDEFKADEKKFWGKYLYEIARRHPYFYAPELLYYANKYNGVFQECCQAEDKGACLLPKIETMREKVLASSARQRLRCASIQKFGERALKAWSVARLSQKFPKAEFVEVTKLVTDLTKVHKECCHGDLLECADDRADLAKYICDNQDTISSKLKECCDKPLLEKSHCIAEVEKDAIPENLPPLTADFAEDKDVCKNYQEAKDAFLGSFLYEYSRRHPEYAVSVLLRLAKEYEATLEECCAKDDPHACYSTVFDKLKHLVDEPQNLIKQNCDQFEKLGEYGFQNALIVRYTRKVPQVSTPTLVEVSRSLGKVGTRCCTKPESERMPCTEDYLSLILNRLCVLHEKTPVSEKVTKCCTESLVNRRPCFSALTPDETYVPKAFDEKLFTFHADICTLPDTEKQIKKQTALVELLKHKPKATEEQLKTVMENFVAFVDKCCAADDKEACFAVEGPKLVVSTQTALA", "assay": "Anti-MDA antibody interaction with MDA-BSA (dot blot)", "details": "MDA-BSA incubated with 1× or 5× 2-HOBA", "method": "A series of doses of MDA-BSA or MDA alone were incubated with 1× or 5×2-HOBA. Then 2 μl of each sample was loaded onto HyBond-C membrane, and incubated with the blocking buffer, primary anti-MDA antibody and fluorescent secondary antibody after vigorous washing. The image was captured by the Odyssey system (FIG. 10A) and quantitated by ImageJ software (FIG. 10B)."}}, "note": "Where “and” joins values, the source holds several entries; their conditions need not be identical. Identical values can stand only once. Entries after “also recorded” stand apart in the source; their conditions may differ.", "data": [{"smiles": "NCc1ccccc1O", "note": "[2-HOBA, 2-hydroxybenzylamine]", "values": [{"measurement": "efferocytosis and cell death in atherosclerotic lesions", "setting": "[1]; Ldlr−/− mice", "result": "enhanced efferocytosis; also recorded: prevents cell death and increases efferocytosis"}, {"measurement": "reduction of number of TUNEL positive cells in proximal aortic lesions", "setting": "[1]; Ldlr−/− mice, compared to 4-HOBA", "result": 72.4, "unit": "%"}, {"measurement": "reduction of number of TUNEL positive cells in proximal aortic lesions", "setting": "[1]; Ldlr−/− mice, compared to vehicle", "result": "72% and 72.9%"}, {"measurement": "increase of TUNEL positive cells not associated with macrophages", "setting": "[1]; lesions of mice treated with 4-HOBA versus 2-HOBA", "result": 2.0, "unit": "fold"}, {"measurement": "increase of TUNEL positive cells not associated with macrophages", "setting": "[1]; lesions of mice treated with vehicle versus 2-HOBA", "result": 1.9, "unit": "fold"}, {"measurement": "number of apoptotic cells, macrophage cultures", "setting": "primary macrophages", "result": "markedly decreased"}, {"measurement": "number of apoptotic cells, endothelial cell cultures", "setting": "aortic endothelial cells", "result": "markedly decreased"}, {"measurement": "plasma levels of MDA", "setting": "MDA", "result": "decreased"}, {"measurement": "MDA content in LDL", "setting": "MDA-LDL", "result": "reduced"}, {"measurement": "reduction of MDA adduct content in isolated LDL (ELISA)", "setting": "MDA-LDL; compared to 4-HOBA", "result": 54, "unit": "%"}, {"measurement": "reduction of MDA adduct content in isolated LDL (ELISA)", "setting": "MDA-LDL; compared to vehicle", "result": 57, "unit": "%"}, {"measurement": "interference with antibody recognition of MDA-albumin adducts", "setting": "[2]", "result": "does not interfere; also recorded: does not impact"}]}]}
